Assay results reported in patent US20240140957A1, “BRIDGED COMPOUNDS AS KRAS G12D INHIBITOR AND DEGRADER AND THE USE THEREOF” (BeiGene Switzerland GmbH, priority 2021, published 2024).

Key:
[1] = test system: pERK1/2 (THR202/TYR204) in AsPC-1 cells; assay: pERK Assay (HTRF) in AsPC-1 cells; assay type: cell-based; settings: Homo sapiens, ASPC1, 2 h compound treatment
Protocol: AsPC-1 cell line was used in this study. […] 30000 cells per well were seeded into a 96-well plate and incubated overnight. […] After 2 h compound treatment, cells were lysed, and the pERK1/2 (THR202/TYR204) level in the cell lysates was detected by HTRF kit (Cisbio). In brief, a total of 16 μL of cell lysate from each well of a 96-well plate was transferred to a 384-well white assay plate. Lysate from each well was incubated with 2 μL of Eu3+-cryptate (donor) labeled anti-phospho-ERK1/2 and 2 μL of D2 (acceptor) labeled anti-phospho-ERK1/2 antibodies (Cisbio) overnight in dark at room temperature. When donor and acceptor are in close proximity, excitation of the donor with laser triggers a Fluorescence Resonance Energy Transfer (FRET) towards the acceptor, which in turn fluoresces at 655 nm wavelength. FRET signals were measured using a PHERAstar FSX reader (BMG Labtech).

KRAS G12D:SOS1 = KRAS G12D:SOS1 (Homo sapiens, UniProt P01116, G12D); assay: KRAS G12D:SOS1 GDP TR-FRET assay; assay type: binding; settings: GST-KRAS G12D 37.5 nM, GDP 10 μM, His-SOS1 18 nM
Chain of KRAS G12D:SOS1 (P01116 1-188 isoform P01116-2 G12D): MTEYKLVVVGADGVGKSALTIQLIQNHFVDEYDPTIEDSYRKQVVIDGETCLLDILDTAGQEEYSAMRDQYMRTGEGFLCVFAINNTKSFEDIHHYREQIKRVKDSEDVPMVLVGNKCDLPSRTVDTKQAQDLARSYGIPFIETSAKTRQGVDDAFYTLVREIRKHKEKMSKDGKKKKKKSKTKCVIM
Protocol: (§1) KRAS:SOS1 GDP TR-FRET Assay
(§2) This assay was used to identify compounds which competitively interact with the binding of KRAS protein to SOS1 in the presence of GDP. […] All protein and reaction solutions were prepared in assay buffer containing DPBS pH7.5, 0.1% BSA, and 0.05% Tween 20. Purified GST-tagged WT KRAS or KRAS G12D protein (37.5 nM final assay concentration) and GDP (Sigma, 10 μM final assay concentration) mixture, a serially diluted compound (top final concentration is 50 μM or 10 uM, 3-fold serially diluted, 10 points) and His-tagged SOS1 protein (18 nM final assay concentration) were added into the assay plates (384 well microplate, black, Corning) sequentially. Plates are incubated at 24° C. for 1 hr. Following the incubation, Mab Anti-GST-Tb cryptate (Cisbio) and […] (Cisbio) were added and further incubated at 24° C. for another 1 hr. The TR-FRET signals (ex337 nm, em665 nm/620 nm) were read on BMG PHERAstar FSX instrument. The inhibition percentage of KRAS protein binding with SOS1 in presence of increasing concentrations of compounds was calculated based on the ratio of fluorescence at 665 nm to that at 620 nm. The IC50 value of each compound was calculated from fitting the data to the four-parameter logistic model by Dotmatics.

WT KRAS:SOS1 = WT KRAS:SOS1 (Homo sapiens, UniProt P01116); assay: KRAS WT:SOS1 GDP TR-FRET assay; assay type: binding; settings: GST-WT KRAS 37.5 nM, GDP 10 μM, His-SOS1 18 nM
Chain of WT KRAS:SOS1 (P01116 1-188 isoform P01116-2): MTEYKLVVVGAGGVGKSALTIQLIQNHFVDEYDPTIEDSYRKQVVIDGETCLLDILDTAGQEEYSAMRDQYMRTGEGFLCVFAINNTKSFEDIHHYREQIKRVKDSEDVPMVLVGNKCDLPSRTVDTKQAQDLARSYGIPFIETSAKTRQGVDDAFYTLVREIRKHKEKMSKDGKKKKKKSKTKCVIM
Protocol: as §1, §2

| SMILES | IC50 [1] [nM] | IC50 (KRAS G12D:SOS1) [nM] | IC50 (WT KRAS:SOS1) [nM] |
| --- | --- | --- | --- |
| CO[C@@H]1C[C@@H](COc2nc(N3CC4CCC(C3)N4)c3cc(Cl)c(-c4ccc(F)c5sc(N)nc45)c(F)c3n2)N(C)C1 [Example E14, 4-(4-(3,8-diazabicyclo[3.2.1]octan-3-yl)-6-chloro-8-fluoro-2-(((2S,4R)-4-methoxy-1-methylpyrrolidin-2-yl)methoxy)quinazolin-7-yl)-7-fluorobenzo[d]thiazol-2-amine] | 1160 | 5.3 | 68 |
| CC(CN1C2CCC1CNC2)Oc1nc(N2CC3CCC(C2)N3)c2cc(Cl)c(-c3ccc(F)c4sc(N)nc34)c(F)c2n1 (centres unmarked) [Example E10, 4-(2-((1-(3,8-diazabicyclo[3.2.1]octan-8-yl)propan-2-yl)oxy)-4-(3,8-diazabicyclo[3.2.1]octan-3-yl)-6-chloro-8-fluoroquinazolin-7-yl)-7-fluorobenzo[d]thiazol-2-amine] | > 10000 | 5.7 | 387 |
| CN(C)CCCOc1nc(N2CC3CCC2CN3)c2cc(Cl)c(-c3ccc(F)c4sc(N)nc34)c(F)c2n1 (centres unmarked) [Example E4, 4-(4-(2,5-diazabicyclo[2.2.2]octan-2-yl)-6-chloro-2-(3-(dimethylamino)propoxy)-8-fluoroquinazolin-7-yl)-7-fluorobenzo[d]thiazol-2-amine] | > 10000 | 39 | 1100 |
| C[C@@H](CN1CC=CCC1)Oc1nc(N2CC3CCC(C2)N3)c2cc(Cl)c(-c3ccc(F)c4sc(N)nc34)c(F)c2n1 [Example E33, 4-(4-(3,8-diazabicyclo[3.2.1]octan-3-yl)-6-chloro-2-(((S)-1-(3,6-dihydropyridin-1(2H)-yl)propan-2-yl)oxy)-8-fluoroquinazolin-7-yl)-7-fluorobenzo[d]thiazol-2-amine] | 890 | 6.1 | 143 |
| CN(C)C1CN(c2nc(N3CCNCC3)c3cc(Cl)c(-c4cc(O)cc5ccccc45)c(F)c3n2)C1 [Example E2, 4-(6-chloro-2-(3-(dimethylamino)azetidin-1-yl)-8-fluoro-4-(piperazin-1-yl)quinazolin-7-yl)naphthalen-2-ol] | – | 4850 | > 50000 |
| CN(C)CCCOc1nc(N2CC3CC2CN3)c2cc(Cl)c(-c3ccc(F)c4sc(N)nc34)c(F)c2n1 (centres unmarked) [Example E3, 4-(4-(2,5-diazabicyclo[2.2.1]heptan-2-yl)-6-chloro-2-(3-(dimethylamino)propoxy)-8-fluoroquinazolin-7-yl)-7-fluorobenzo[d]thiazol-2-amine] | > 10000 | 68 | 3290 |
| CC(CN1CCCCC1)Oc1nc(N2CC3CCC(C2)N3)c2cc(Cl)c(-c3ccc(F)c4sc(N)nc34)c(F)c2n1 (centres unmarked) [Example E5, 4-(4-(3,8-diazabicyclo [3.2.1]octan-3-yl)-6-chloro-8-fluoro-2-((1-(piperidin-1-yl)propan-2-yl)_oxy)quinazolin-7-yl)-7-fluorobenzo[d]thiazol-2-amine] | 2870 | 20 | 402 |
| CN(C)CCCOc1nc(N2CCNCC2)c2cc(Cl)c(-c3cc(O)cc4ccccc34)c(F)c2n1 [Example E1, 4-(6-chloro-2-(3-(dimethylamino)propoxy)-8-fluoro-4-(piperazin-1-)quinazolin-7-yl)naphthalen-2-ol] | > 10000 | 1870 | 26900 |
| C[C@@H](CN1CCC(F)C1)Oc1nc(N2CC3CCC(C2)N3)c2cc(Cl)c(-c3ccc(F)c4sc(N)nc34)c(F)c2n1 (stereo partly drawn) [Example E24, 4-(4-(3,8-diazabicyclo[3.2.1]octan-3-yl)-6-chloro-8-fluoro-2-(((2S)-1-(3-fluoropyrrolidin-1-yl)propan-2-yl)oxy)quinazolin-7-yl)-7-fluorobenzo[d]thiazol-2-amine] | 1270 | 2.8 | 210 |
| CC(CN1CCCCC1)Oc1nc(N2C3CCC2CNC3)c2cc(Cl)c(-c3ccc(F)c4sc(N)nc34)c(F)c2n1 (centres unmarked) [Example E8, 4-(4-(3,8-diazabicyclo[3.2.1]octan-8-yl)-6-chloro-8-fluoro-2-((1-(piperidin-1-yl)propan-2-yl)oxy)quinazolin-7-yl)-7-fluorobenzo[d]thiazol-2-amine] | 1150 | 6.7 | 50 |
| CN1CCC[C@H]1COc1nc(N2CC3CCC(C2)N3)c2cc(Cl)c(-c3ccc(F)c4sc(N)nc34)c(F)c2n1 [Example E16, 4-(4-(3,8-diazabicyclo[3.2.1]octan-3-yl)-6-chloro-8-fluoro-2-(((S)-1-methylpyrrolidin-2-yl)methoxy)quinazolin-7-yl)-7-fluorobenzo[d]thiazol-2-amine] | 1520 | 2.8 | 27 |
| C[C@@H](CN1CCC(C#N)CC1)Oc1nc(N2CC3CCC(C2)N3)c2cc(Cl)c(-c3ccc(F)c4sc(N)nc34)c(F)c2n1 [Example E26, 1-((2S)-2-((7-(2-amino-7-fluorobenzo[d]thiazol-4-yl)-4-(3,8-diazabicyclo[3.2.1]octan-3-yl)-6-chloro-8-fluoroquinazolin-2-yl)oxy)propyl)piperidine-4-carbonitrile] | 819 | 2.9 | 140 |
| Nc1nc2c(-c3c(Cl)cc4c(N5CC6CCC(C5)N6)nc(OCC56CCCN5CCC6)nc4c3F)ccc(F)c2s1 [Example E7, 4-(4-(3,8-diazabicyclo[3.2.1]octan-3-yl)-6-chloro-8-fluoro-2-((tetrahydro-1H-pyrrolizin-7a(5H)-yl)methoxy)quinazolin-7-yl)-7-fluorobenzo[d]thiazol-2-amine] | 2640 | 4.7 | 11 |
| C[C@@H](CN1CCCCC1)Oc1nc(N2CC3CCC(C2)N3)c2cc(Cl)c(-c3ccc(F)c4sc(N)nc34)c(F)c2n1 [Example E11, 4-(4-(3,8-diazabicyclo[3.2.1]octan-3-yl)-6-chloro-8-fluoro-2-(((S)-1-(piperidin-1-yl)propan-2-yl)oxy)quinazolin-7-yl)-7-fluorobenzo[d]thiazol-2-amine] | 859 | 1.9 | 30 |
| C[C@@H](CN1CC(F)(F)C1)Oc1nc(N2CC3CCC(C2)N3)c2cc(Cl)c(-c3ccc(F)c4sc(N)nc34)c(F)c2n1 [Example E32, 4-(4-(3,8-diazabicyclo[3.2.1]octan-3-yl)-6-chloro-2-(((S)-1-(3,3-difluoroazetidin-1-yl)propan-2-yl)oxy)-8-fluoroquinazolin-7-yl)-7-fluorobenzo[d]thiazol-2-amine] | – | 81 | > 10000 |
| C[C@@H](CN1CCN(C)CC1)Oc1nc(N2CC3CCC(C2)N3)c2cc(Cl)c(-c3ccc(F)c4sc(N)nc34)c(F)c2n1 [Example E34, 4-(4-(3,8-diazabicyclo[3.2.1]octan-3-yl)-6-chloro-8-fluoro-2-(((S)-1-(4-methylpiperazin-1-yl)propan-2-yl)oxy)quinazolin-7-yl)-7-fluorobenzo[d]thiazol-2-amine] | > 10000 | 15 | 1350 |
| CS(=O)(=O)N1CCN(c2nc(OC[C@@H]3CCCN3CCCOCCC(=O)NCCOCCNC(=O)CCCC[C@@H]3SC[C@@H]4NC(=O)N[C@@H]43)nc3c2CCN(c2cccc4cccc(Cl)c24)C3)C[C@@H]1CC#N [Example E57, N-(2-(2-(3-(3-((S)-2-(((7-(8-chloronaphthalen-1-yl)-4-((S)-3-(cyanomethyl)-4-(methylsulfonyl)piperazin-1-yl)-5,6,7,8-tetrahydropyrido[3,4-d]pyrimidin-2-yl)oxy)methyl)pyrrolidin-1-yl)propoxy)propanamido)ethoxy)ethyl)-5-((3aS,4S,6aR)-2-oxohexahydro-1H-thieno[3,4-d]imidazol-4-yl)pentanamide] | – | > 10000 | 130 |
| Nc1nc2c(-c3c(Cl)cc4c(N5CCNCC5)nc(OCCCN5CCN(CCCOCCC(=O)NCCOCCNC(=O)CCCC[C@@H]6SC[C@@H]7NC(=O)N[C@@H]76)CC5)nc4c3F)ccc(F)c2s1 [Example E56, N-(2-(2-(3-(3-(4-(3-((7-(2-amino-7-fluorobenzo[d]thiazol-4-yl)-6-chloro-8-fluoro-4-(piperazin-1-yl)quinazolin-2-yl)oxy)propyl)piperazin-1-yl)propoxy)propanamido)ethoxy)ethyl)-5-((3 aS, 4S,6aR)-2-oxohexahydro-1H-thieno[3,4-d]imidazol-4-yl)pentanamide] | – | 21 | 370 |
